Columns and labels:
[1] = target: T1, 17-beta-hydroxysteroid dehydrogenase type 1 (Homo sapiens) (UniProt P14061); assay: Inhibition of 17beta-HSD1 in human T47D cells assessed as decrease in transformation of [14C]estrone to [14C]-estradiol at 0.01 uM after 24 hrs by thin layer chromatography; format: cell-based
T1 sequence (whole entry): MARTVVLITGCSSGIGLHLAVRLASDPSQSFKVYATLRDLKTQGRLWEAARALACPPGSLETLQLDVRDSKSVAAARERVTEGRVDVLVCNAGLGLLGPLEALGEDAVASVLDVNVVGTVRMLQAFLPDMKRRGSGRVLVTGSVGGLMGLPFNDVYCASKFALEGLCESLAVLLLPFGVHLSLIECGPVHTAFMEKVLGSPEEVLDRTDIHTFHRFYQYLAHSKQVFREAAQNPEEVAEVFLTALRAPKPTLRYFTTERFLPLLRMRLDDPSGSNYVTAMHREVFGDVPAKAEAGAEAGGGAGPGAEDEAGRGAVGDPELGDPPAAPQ

[2] = target: T1, 17-beta-hydroxysteroid dehydrogenase type 1 (Homo sapiens); assay: Inhibition of 17beta-HSD1 in human T47D cells assessed as decrease in transformation of [14C]estrone to [14C]-estradiol at 0.1 uM after 24 hrs by thin layer chromatography; format: cell-based
MCF7 = assay: Estrogenic activity in estrogen-starved estrogen sensitive human MCF7 cells assessed as stimulation of cell proliferation at 0.1 to 1 uM after 7 days by CellTiter96 assay; format: ADME, cell-based; conditions: mcf7, 168 h

| Compound | inhibition [1] | inhibition [2] | Activity (MCF7) |
| --- | --- | --- | --- |
| C[C@]12CC[C@@H]3c4ccc(CO)cc4CC[C@H]3[C@@H]1C[C@H](Cc1cccc(C(N)=O)c1)[C@@H]2O | 14% | – | – |
| C[C@]12CC[C@@H]3c4ccc(CCO)cc4CC[C@H]3[C@@H]1C[C@H](Cc1cccc(C(N)=O)c1)[C@@H]2O | 7% | 17% | – |
| C[C@]12CC[C@@H]3c4ccc(CCBr)cc4CC[C@H]3[C@@H]1C[C@H](Cc1cccc(C(N)=O)c1)[C@@H]2O | 23% | 49% | Non-toxic |
| C[C@]12CC[C@@H]3c4ccc(CBr)cc4CC[C@H]3[C@@H]1C[C@H](Cc1cccc(C(N)=O)c1)[C@@H]2O | 20% | 36% | – |
| C[C@]12CC[C@@H]3c4ccc(O)cc4CC[C@H]3[C@@H]1C[C@H](Cc1cccc(C(N)=O)c1)[C@@H]2O | 35% | 66% | – |
